In patent publication US20250326744A1, “PIPERAZINE DERIVATIVE OR SALT THEREOF, AND PHARMACEUTICAL COMPOSITION” (priority 2022, published 2025):
Where a name gives a salt, the structure may show the parent alone.

Assays:
mexB (PA) strain = assay: Combinational effect with antibacterial agent against Pseudomonas aeruginosa (Test Examples 2 and 4): mexB (PA) strain with LVFX, TC or AZT at 1/4 MIC, EC99; type: cell-based; details: for EC99, combinational effect with AZT, mexB (PA) / EC99, combinational effect with LVFX, mexB (PA) / EC99, combinational effect with TC, mexB (PA): mexB (PA) strain, Test Example 4; for EC99, combinational effect with AZT, mexB (PA) / EC99, mexB (PA), AZT: combined with AZT at 1/4 MIC; for EC99, combinational effect with LVFX, mexB (PA) / EC99, mexB (PA), LVFX: combined with LVFX at 1/4 MIC; for EC99, combinational effect with TC, mexB (PA) / EC99, mexB (PA), TC: combined with TC at 1/4 MIC; for EC99, mexB (PA), AZT / EC99, mexB (PA), LVFX / EC99, mexB (PA), TC: Table 52, Test Example 2, 16 to 20 hours culture, OD595
Method in brief: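 EC99 denotes the minimum test-compound concentration (range 0–800 μM) that suppresses ≥99% of growth, measured by OD595, when combined with ¼ MIC levofloxacin (LVFX), tetracycline or aztreonam. The efflux-pump mutant mexB (PA), expressing mainly MexAB-OprM, was inoculated at 10^4–5 CFU/well in CAMHB for 16–20 h.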

S-3769 strain = assay: Combinational effect with antibacterial agent against Pseudomonas aeruginosa (Test Examples 2 and 4): S-3769 strain with AMK or GM at 1/4 MIC, EC99; type: cell-based; details: for EC99, combinational effect with AMK, S-3769 strain / EC99, S-3769 strain, AMK: combined with AMK at 1/4 MIC; for EC99, combinational effect with AMK, S-3769 strain / EC99, combinational effect with GM, S-3769 strain: Test Example 4; for EC99, combinational effect with GM, S-3769 strain / EC99, S-3769 strain, GM: combined with GM at 1/4 MIC; for EC99, S-3769 strain, AMK / EC99, S-3769 strain, GM: Table 52, Test Example 2, 16 to 20 hours culture, OD595
Method in brief: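 EC99, the lowest test-compound concentration inhibiting growth by ≥99% (OD595), was measured with aminoglycoside AMK or GM held at ¼ MIC. Strain S-3769, a MexY-overexpressing clinical isolate, was cultured in CAMHB at 10^4 to 5 CFU/well for 16–20 h; compound range 0–800 μM.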

CCSc1cc(F)ccc1CN1CCN(C(=O)[C@H](N)C2CCN(CCc3cc(Cl)ccc3-c3cccc(O)c3Cl)CC2)CC1 [Example 616, (R)-2-amino-2-(1-(2-(2′,4-dichloro-3′-hydroxy-[1,1′-biphenyl]-2-yl)ethyl)piperidin-4-yl)-1-(4-(2-(ethylthio)-4-fluorobenzyl)piperazin-1-yl)ethan-1-one]
EC99, combinational effect with AZT, mexB (PA) (mexB (PA) strain): S (EC99≤12.5 μM) | EC99, combinational effect with LVFX, mexB (PA) (mexB (PA) strain): S (EC99≤12.5 μM) | EC99, combinational effect with TC, mexB (PA) (mexB (PA) strain): S (EC99≤12.5 μM) | EC99, combinational effect with AMK, S-3769 strain (S-3769 strain): S (EC99≤12.5 μM) | EC99, combinational effect with GM, S-3769 strain (S-3769 strain): S (EC99≤12.5 μM)

CCOc1cccc(F)c1CN1CCN(C(=O)[C@H](N)C2CCN(CCc3cc(Cl)ccc3-c3ccoc3)CC2)CC1 [Example 547, Hydrobromide of (R)-2-amino-2-(1-(5-chloro-2-(furan-3-yl)phenethyl)piperidin-4-yl)-1-(4-(2-ethoxy-6-fluorobenzyl)piperazin-1-yl)ethan-1-one]
EC99, combinational effect with AZT, mexB (PA) (mexB (PA) strain): B (25 μM<EC99≤100 μM) | EC99, combinational effect with LVFX, mexB (PA) (mexB (PA) strain): B (25 μM<EC99≤100 μM) | EC99, combinational effect with TC, mexB (PA) (mexB (PA) strain): C (100 μM<EC99) | EC99, combinational effect with AMK, S-3769 strain (S-3769 strain): S (EC99≤12.5 μM) | EC99, combinational effect with GM, S-3769 strain (S-3769 strain): S (EC99≤12.5 μM)

CCOc1ccc(O)c(F)c1CN1CCN(C(=O)[C@H](N)C2CCN(CCc3cc(Cl)ccc3-c3ccccc3)CC2)CC1 [Example 104, hydrochloride of (R)-2-amino-2-(1-(2-(4-chloro-[1,1′-biphenyl]-2-yl)ethyl)piperidin-4-yl)-1-(4-(6-ethoxy-2-fluoro-3-hydroxybenzyl)piperazin-1-yl)ethan-1-one]
EC99, mexB (PA), AZT (mexB (PA) strain): A (12.5 μM<EC99≤25 μM) | EC99, mexB (PA), LVFX (mexB (PA) strain): B (25 μM<EC99≤100 μM) | EC99, mexB (PA), TC (mexB (PA) strain): A (12.5 μM<EC99≤25 μM) | EC99, S-3769 strain, AMK (S-3769 strain): S (EC99≤12.5 μM) | EC99, S-3769 strain, GM (S-3769 strain): S (EC99≤12.5 μM)

CCOc1cccc(F)c1CN1CCN(C(=O)[C@H](N)C2CCN(CCc3cc(F)ccc3-c3ccccc3)CC2)CC1 [Example 50, Hydrobromide of (R)-2-amino-1-(4-(2-ethoxy-6-fluorobenzyl)piperazin-1-yl)-2-(1-(2-(4-fluoro-[1,1′-biphenyl]-2-yl)ethyl)piperidin-4-yl)ethan-1-one]
EC99, mexB (PA), AZT (mexB (PA) strain): B (25 μM<EC99≤100 μM) | EC99, mexB (PA), LVFX (mexB (PA) strain): C (100 μM<EC99) | EC99, mexB (PA), TC (mexB (PA) strain): B (25 μM<EC99≤100 μM) | EC99, S-3769 strain, AMK (S-3769 strain): B (25 μM<EC99≤100 μM) | EC99, S-3769 strain, GM (S-3769 strain): A (12.5 μM<EC99≤25 μM)

N[C@@H](C(=O)N1CCN(Cc2ccccc2C(F)(F)F)CC1)C1CCN(CCc2cc(Cl)ccc2-c2ccccc2)CC1 [Example 510, Hydrobromide of (R)-2-amino-2-(1-(2-(4-chloro-[1,1-biphenyl]-2-yl)ethyl)piperidin-4-yl)-1-(4-(2-(trifluoromethyl)benzyl)piperazin-1-yl)ethan-1-one]
EC99, combinational effect with AZT, mexB (PA) (mexB (PA) strain): B (25 μM<EC99≤100 μM) | EC99, combinational effect with LVFX, mexB (PA) (mexB (PA) strain): B (25 μM<EC99≤100 μM) | EC99, combinational effect with TC, mexB (PA) (mexB (PA) strain): A (12.5 μM<EC99≤25 μM) | EC99, combinational effect with AMK, S-3769 strain (S-3769 strain): A (12.5 μM<EC99≤25 μM) | EC99, combinational effect with GM, S-3769 strain (S-3769 strain): B (25 μM<EC99≤100 μM)

CCOc1cccc(F)c1CN1CCN(C(=O)[C@H](N)C2CCN(CCc3ccc(O)cc3-c3ccccc3)CC2)CC1 [Example 625, Hydrochloride of (R)-2-amino-1-(4-(2-ethoxy-6-fluorobenzyl)piperazin-1-yl)-2-(1-(2-(5-hydroxy-[1,1-biphenyl]-2-yl)ethyl)piperidin-4-yl)ethan-1-one]
EC99, combinational effect with AZT, mexB (PA) (mexB (PA) strain): C (100 μM<EC99) | EC99, combinational effect with LVFX, mexB (PA) (mexB (PA) strain): C (100 μM<EC99) | EC99, combinational effect with TC, mexB (PA) (mexB (PA) strain): C (100 μM<EC99) | EC99, combinational effect with AMK, S-3769 strain (S-3769 strain): A (12.5 μM<EC99≤25 μM) | EC99, combinational effect with GM, S-3769 strain (S-3769 strain): A (12.5 μM<EC99≤25 μM)

CCOc1cccc(F)c1CN1CCN(C(=O)[C@H](N)C2CCN(CCc3cc(Cl)ccc3-c3ccc(F)cc3O)CC2)CC1 [Example 108, Hydrochloride of (R)-2-amino-2-(1-(2-(4-chloro-4′-fluoro-2′-hydroxy-[1,1′-biphenyl]-2-yl)ethyl)piperidin-4-yl)-1-(4-(2-ethoxy-6-fluorobenzyl)piperazin-1-yl)ethan-1-one]
EC99, mexB (PA), AZT (mexB (PA) strain): B (25 μM<EC99≤100 μM) | EC99, mexB (PA), LVFX (mexB (PA) strain): B (25 μM<EC99≤100 μM) | EC99, mexB (PA), TC (mexB (PA) strain): A (12.5 μM<EC99≤25 μM) | EC99, S-3769 strain, AMK (S-3769 strain): S (EC99≤12.5 μM) | EC99, S-3769 strain, GM (S-3769 strain): A (12.5 μM<EC99≤25 μM)

Cc1ccsc1CN1CCN(C(=O)[C@H](N)C2CCN(CCc3cc(Cl)ccc3-c3ccccc3)CC2)CC1 [Example 516, Hydrobromide of (R)-2-amino-2-(1-(2-(4-chloro-[1,1-biphenyl]-2-yl)ethyl)piperidin-4-yl)-1-(4-((3-methylthiophen-2-yl)methyl)piperazin-1-yl)ethan-1-one]
EC99, combinational effect with AZT, mexB (PA) (mexB (PA) strain): B (25 μM<EC99≤100 μM) | EC99, combinational effect with LVFX, mexB (PA) (mexB (PA) strain): B (25 μM<EC99≤100 μM) | EC99, combinational effect with TC, mexB (PA) (mexB (PA) strain): B (25 μM<EC99≤100 μM) | EC99, combinational effect with AMK, S-3769 strain (S-3769 strain): B (25 μM<EC99≤100 μM) | EC99, combinational effect with GM, S-3769 strain (S-3769 strain): B (25 μM<EC99≤100 μM)

N[C@@H](C(=O)N1CCN(Cc2cccc3c2OCCC3)CC1)C1CCN(CCc2cc(Cl)ccc2-c2ccccc2)CC1 [Example 10, Hydrobromide of (R)-2-amino-2-(1-(2-(4-chloro-[1,1′-biphenyl]-2-yl)ethyl)piperidin-4-yl)-1-(4-(chroman-8-ylmethyl)piperazin-1-yl)ethan-1-one]
EC99, mexB (PA), AZT (mexB (PA) strain): A (12.5 μM<EC99≤25 μM) | EC99, mexB (PA), LVFX (mexB (PA) strain): A (12.5 μM<EC99≤25 μM) | EC99, mexB (PA), TC (mexB (PA) strain): A (12.5 μM<EC99≤25 μM) | EC99, S-3769 strain, AMK (S-3769 strain): A (12.5 μM<EC99≤25 μM) | EC99, S-3769 strain, GM (S-3769 strain): A (12.5 μM<EC99≤25 μM)

CCOc1cccc(F)c1CN1CCN(C(=O)[C@H](N)C2CC[N+](C)(CCc3cc(Cl)ccc3-c3ccccc3)CC2)CC1 (stereo partly drawn) [Example 568, Hydrobromide of (R)-4-(1-amino-2-(4-(2-ethoxy-6-fluorobenzyl)piperazin-1-yl)-2-oxoethyl)-1-(2-(4-chloro-[1,1-biphenyl]-2-yl)ethyl)-1-methylpiperidin-1-ium bromide]
EC99, combinational effect with AZT, mexB (PA) (mexB (PA) strain): C (100 μM<EC99) | EC99, combinational effect with LVFX, mexB (PA) (mexB (PA) strain): C (100 μM<EC99) | EC99, combinational effect with TC, mexB (PA) (mexB (PA) strain): C (100 μM<EC99) | EC99, combinational effect with AMK, S-3769 strain (S-3769 strain): S (EC99≤12.5 μM) | EC99, combinational effect with GM, S-3769 strain (S-3769 strain): S (EC99≤12.5 μM)

CCOc1cccc(F)c1CN1CCN(C(=O)[C@H](N)C2CCN(CCc3cc(Cl)ccc3-c3ccsc3)CC2)CC1 [Example 101, Hydrobromide of (R)-2-amino-2-(1-(5-chloro-2-(thiophen-3-yl)phenethyl)piperidin-4-yl)-1-(4-(2-ethoxy-6-fluorobenzyl)piperazin-1-yl)ethan-1-one]
EC99, mexB (PA), AZT (mexB (PA) strain): B (25 μM<EC99≤100 μM) | EC99, mexB (PA), LVFX (mexB (PA) strain): C (100 μM<EC99) | EC99, mexB (PA), TC (mexB (PA) strain): B (25 μM<EC99≤100 μM) | EC99, S-3769 strain, AMK (S-3769 strain): S (EC99≤12.5 μM) | EC99, S-3769 strain, GM (S-3769 strain): S (EC99≤12.5 μM)

CSc1ccccc1CN1CCN(C(=O)[C@H](N)C2CCN(CCc3cc(Cl)ccc3-c3cccc(N)c3)CC2)CC1 [Example 600, Hydrochloride of (R)-2-amino-2-(1-(2-(3′-amino-4-chloro-[1,1-biphenyl]-2-yl)ethyl)piperidin-4-yl)-1-(4-(2-(methylthio)benzyl)piperazin-1-yl)ethan-1-one]
EC99, combinational effect with AZT, mexB (PA) (mexB (PA) strain): S (EC99≤12.5 μM) | EC99, combinational effect with LVFX, mexB (PA) (mexB (PA) strain): S (EC99≤12.5 μM) | EC99, combinational effect with TC, mexB (PA) (mexB (PA) strain): S (EC99≤12.5 μM) | EC99, combinational effect with AMK, S-3769 strain (S-3769 strain): A (12.5 μM<EC99≤25 μM) | EC99, combinational effect with GM, S-3769 strain (S-3769 strain): A (12.5 μM<EC99≤25 μM)

CCSc1cc(F)ccc1CN1CCN(C(=O)[C@H](N)C2CCN(CCc3cc(Cl)ccc3C3=CCCNC3)CC2)CC1 [Example 605, Hydrochloride of (R)-2-amino-2-(1-(5-chloro-2-(1,2,5,6-tetrahydropyridin-3-yl)phenethyl)piperidin-4-yl)-1-(4-(2-(cthylthio)-4-fluorobenzyl)piperazin-1-yl) ethan-1-one]
EC99, combinational effect with AZT, mexB (PA) (mexB (PA) strain): B (25 μM<EC99≤100 μM) | EC99, combinational effect with LVFX, mexB (PA) (mexB (PA) strain): S (EC99≤12.5 μM) | EC99, combinational effect with TC, mexB (PA) (mexB (PA) strain): S (EC99≤12.5 μM) | EC99, combinational effect with AMK, S-3769 strain (S-3769 strain): S (EC99≤12.5 μM) | EC99, combinational effect with GM, S-3769 strain (S-3769 strain): S (EC99≤12.5 μM)
